Experimental data from patent publication US7964723B2, “And practical process for exclusively producing (S)-9-fluoro-3-methyl-10-(4-methyl-1-piperazinyl)-7-oxo-2,3-dihydro-7H-pyrido-[1,2,3,de][1,4]benzoxazine-6-carboxylic acid hemihydrate” (Apeloa-Kangyu, priority 2008, dated 2011).
Read-outs that look alike come from different tables or passages of the source.

What was measured:
[1] = hemihydrate compared with monohydrate; cited from earlier work
[2] = loss of crystal water on drying; type: physicochemical; details: 50° C. under vacuum of around 60 mm/Hg for a couple of hours; theoretical water 2.43%
From the text: Levofloxacin hemihydrate contains a theoretical amount of water of 2.43%.

[3] = cited from earlier work
[4] = system: gram-positive and gram-negative bacteria; details: cited from earlier work

| Compound | phase stability as a drug substance [1] | water lost by drying [2] | drying temperature at which crystal water is lost (anhydrous form results) ([3]; under atmospheric pressure) | drying temperature at which crystal water is lost (anhydrous form results) ([3]; under reduced pressure) | potency in inhibiting the multiplication of bacteria relative to its (+)-enantiomer ([4]; gram-positive and gram-negative bacteria, versus (+)-enantiomer) | activity relative to its racemate, ofloxacine ([4]; versus racemate) |
| --- | --- | --- | --- | --- | --- | --- |
| C[C@H]1COc2c(N3CCN(C)CC3)c(F)cc3c(=O)c(C(=O)O)cn1c23 [Levofloxacin hemihydrate, (−)-(S)-9-fluoro-3-methyl-10-(4-methyl-1-piperazinyl)-7-oxo-2,3-dihydro-7H-pyrido-[1,2,3-de] [1,4] benzoxazine-6-carboxylic acid hemihydrate] | superior to the monohydrate | 0.20-0.30% | around 70 °C | around 60 °C | – | – |
| C[C@H]1COc2c(N3CCN(C)CC3)c(F)cc3c(=O)c(C(=O)O)cn1c23 [Levofloxacin, (S)-9-fluoro-3-methyl-10-(4-methyl-1-piperazinyl)-7-oxo-2,3-dihydro-7H-pyrido-[1,2,3-de][1,4]benzoxazine-6-carboxylic acid] | – | – | – | – | 8-128 times | approximately 2 times |
